According to patent US20170334899A1, “AMINO-SUBSTITUTED ISOTHIAZOLES” (Bayer Pharma Aktiengesellschaft, priority 2014, published 2017):

biological target: T1, human kinase Mps-1 (Homo sapiens, UniProt P33981); experiment: Mps-1 kinase assay (TR-FRET); type: biochemical; conditions: Mps-1 TR-FRET kinase assay; avg; read-out: Mps1 avg (IC50 [mol/l])
T1 construct: N-terminally GST-tagged human full length recombinant Mps-1 kinase; GST (N); purchased Invitrogen, Karslruhe, Germany PV4071
T1 sequence (P33981 1-857): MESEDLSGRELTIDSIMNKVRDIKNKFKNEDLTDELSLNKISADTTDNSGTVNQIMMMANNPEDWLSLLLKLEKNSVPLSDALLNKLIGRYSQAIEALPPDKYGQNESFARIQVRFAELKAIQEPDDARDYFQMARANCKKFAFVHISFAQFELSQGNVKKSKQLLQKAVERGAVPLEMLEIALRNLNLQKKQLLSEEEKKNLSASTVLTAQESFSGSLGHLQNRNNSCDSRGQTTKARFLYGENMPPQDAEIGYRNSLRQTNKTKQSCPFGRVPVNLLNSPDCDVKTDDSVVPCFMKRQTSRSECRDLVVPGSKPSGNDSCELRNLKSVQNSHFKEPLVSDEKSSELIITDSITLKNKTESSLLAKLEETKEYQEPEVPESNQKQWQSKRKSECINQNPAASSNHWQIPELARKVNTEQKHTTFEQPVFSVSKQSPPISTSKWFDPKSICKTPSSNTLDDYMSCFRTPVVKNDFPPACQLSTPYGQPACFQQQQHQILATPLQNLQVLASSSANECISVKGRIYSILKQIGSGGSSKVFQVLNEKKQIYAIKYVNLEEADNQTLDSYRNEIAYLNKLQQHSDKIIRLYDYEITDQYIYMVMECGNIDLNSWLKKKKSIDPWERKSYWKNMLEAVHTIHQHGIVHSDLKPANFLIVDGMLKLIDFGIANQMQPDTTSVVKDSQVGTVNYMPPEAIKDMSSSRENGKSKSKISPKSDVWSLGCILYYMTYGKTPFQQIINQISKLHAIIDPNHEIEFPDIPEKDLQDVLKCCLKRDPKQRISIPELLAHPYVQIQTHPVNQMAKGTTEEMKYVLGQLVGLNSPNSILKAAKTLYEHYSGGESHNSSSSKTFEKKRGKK
Method in brief: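 GST-tagged full-length recombinant human Mps-1 (~0.5 nM) pre-incubated 15 min with compound, then reacted 60 min at 22 °C with 10 μM ATP and 1 μM biotinylated peptide in Hepes pH 7.7 buffer. EDTA-stopped; TR-FRET (Eu anti-phospho-Ser/Thr to SA-XLent) 665/620 nm ratio normalised to no-inhibitor and no-enzyme controls.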

Row | IC50 | Structure (SMILES)
1 | ≥ 20 µM | COCCOc1ccc(NC(=O)c2c(C)nsc2Nc2nc3c(C(F)(F)F)cccc3s2)cc1F [Example 1, N-[3-Fluoro-4-(2-methoxyethoxy)phenyl]-3-methyl-5-{[4-(trifluoromethyl)-1,3-benzothiazol-2-yl]amino}-1,2-thiazole-4-carboxamide]
2 | ≥ 20 µM | Cc1nsc(Nc2nc3c(C(F)(F)F)cccc3s2)c1C(=O)Nc1ccc(OCCO)nc1 [Example 2, N-[6-(2-Hydroxyethoxy)pyridin-3-yl]-3-methyl-5-{[4-(trifluoromethyl)-1,3-benzo-thiazol-2-yl]amino}-1,2-thiazole-4-carboxamide]
3 | ≥ 20 µM | COCCOc1ccc(NC(=O)c2c(C)nsc2Nc2nc3c(C(F)(F)F)cccc3s2)cn1 [Example 3, N-[6-(2-Methoxyethoxy)pyridin-3-yl]-3-methyl-5-{[4-(trifluoromethyl)-1,3-benzo-thiazol-2-yl]amino}-1,2-thiazole-4-carboxamide]
4 | ≥ 20 µM | Cc1nsc(Nc2nc3c(C(F)(F)F)cccc3s2)c1C(=O)Nc1ccc(OCCO)c(F)c1 [Example 4, N-[3-Fluoro-4-(2-hydroxyethoxy)phenyl]-3-methyl-5-{[4-(trifluoromethyl)-1,3-benzothiazol-2-yl]amino}-1,2-thiazole-4-carboxamide]
5 | ≥ 20 µM | Cc1nsc(Nc2cnc(C(F)(F)F)cn2)c1C(=O)Nc1ccc(OC2CCN(C(=O)OC(C)(C)C)CC2)nc1 [Example 5, tert-Butyl 4-[(5-{[(3-methyl-5-{[5-(trifluoromethyl)pyrazin-2-yl]amino}-1,2-thiazol-4-yl)carbonyl]amino}pyridin-2-yl)oxy]piperidine-1-carboxylate]
6 | ≥ 20 µM | Cc1nsc(Nc2cc(C#N)ccn2)c1C(=O)Nc1ccc(OC2CCCNC2)nc1 (stereo not drawn) [Example 35, 5-[(4-Cyanopyridin-2-yl)amino]-3-methyl-N-[6-(piperidin-3-yloxy)pyridin-3-yl]-1,2-thiazole-4-carboxamide]
7 | ≥ 20 µM | Cc1nsc(Nc2ccc(C#N)cn2)c1C(=O)Nc1ccc(OC2CCCN(C(=O)OC(C)(C)C)C2)nc1 (stereo not drawn) [Example 36, tert-Butyl 3-({5-[({5-[(5-cyanopyridin-2-yl)amino]-3-methyl-1,2-thiazol-4-yl}-carbonyl)amino]pyridin-2-yl}oxy)piperidine-1-carboxylate]
8 | ≥ 20 µM | Cc1nsc(Nc2ccc(C#N)cn2)c1C(=O)Nc1ccc(OC2CCCNC2)nc1 (stereo not drawn) [Example 37, 5-[(5-Cyanopyridin-2-yl)amino]-3-methyl-N-[6-(piperidin-3-yloxy)pyridin-3-yl]-1,2-thiazole-4-carboxamide]
9 | ≥ 20 µM | Cc1nsc(Nc2ccc(C#N)cn2)c1C(=O)Nc1ccc(OC2CCCN(CCF)C2)nc1 (stereo not drawn) [Example 38, 5-[(5-Cyanopyridin-2-yl)amino]-N-(6-{[1-(2-fluoroethyl)piperidin-3-yl]oxy}pyridin-3-yl)-3-methyl-1,2-thiazole-4-carboxamide]
10 | ≥ 20 µM | Cc1nsc(Nc2ccc(C#N)cn2)c1C(=O)Nc1ccc(OC2CCCN(CC(F)F)C2)nc1 (stereo not drawn) [Example 39, 5-[(5-Cyanopyridin-2-yl)amino]-N-(6-{[1-(2,2-difluoroethyl)piperidin-3-yl]oxy}-pyridin-3-yl)-3-methyl-1,2-thiazole-4-carboxamide]
11 | ≥ 20 µM | Cc1nsc(Nc2ccc(C#N)cn2)c1C(=O)Nc1ccc(OC2CCCN(CC(F)(F)F)C2)nc1 (stereo not drawn) [Example 40, 5-[(5-Cyanopyridin-2-yl)amino]-3-methyl-N-(6-{[1-(2,2,2-trifluoroethyl)piperidin-3-yl]oxy}pyridin-3-yl)-1,2-thiazole-4-carboxamide]
12 | ≥ 20 µM | Cc1nsc(Nc2cnccn2)c1C(=O)Nc1ccc(OC2CCCN(C(=O)OC(C)(C)C)C2)nc1 (stereo not drawn) [Example 41, tert-Butyl 3-{[5-({[3-methyl-5-(pyrazin-2-ylamino)-1,2-thiazol-4-yl]carbonyl}amino)-pyridin-2-yl]oxy}piperidine-1-carboxylate]
13 | ≥ 20 µM | Cc1nsc(Nc2cnc3ccccc3n2)c1C(=O)Nc1ccc(OCCCNC(=O)OC(C)(C)C)nc1 [Example 42, tert-Butyl (3-{[5-({[3-methyl-5-(quinoxalin-2-ylamino)-1,2-thiazol-4-yl]carbonyl}-amino)pyridin-2-yl]oxy}propyl)carbamate]
14 | ≥ 20 µM | Cc1nsc(Nc2cc(C#N)ccn2)c1C(=O)Nc1ccc(OCCCNC(=O)OC(C)(C)C)nc1 [Example 43, tert-Butyl [3-({5-[({5-[(4-cyanopyridin-2-yl)amino]-3-methyl-1,2-thiazol-4-yl}-carbonyl)amino]pyridin-2-yl}oxy)propyl]carbamate]
15 | ≥ 20 µM | Cc1nsc(Nc2cc(C#N)ccn2)c1C(=O)Nc1ccc(OCCCN)nc1 [Example 44, N-[6-(3-Aminopropoxy)pyridin-3-yl]-5-[(4-cyanopyridin-2-yl)amino]-3-methyl-1,2-thiazole-4-carboxamide]
16 | ≥ 20 µM | Cc1nsc(Nc2cc(C#N)ccn2)c1C(=O)Nc1ccc(OCCCNCC(F)F)nc1 [Example 45, 5-[(4-Cyanopyridin-2-yl)amino]-N-(6-{3-[(2,2-difluoroethyl)amino]propoxy}pyridin-3-yl)-3-methyl-1,2-thiazole-4-carboxamide]
17 | ≥ 20 µM | Cc1nsc(Nc2ccc(C#N)cn2)c1C(=O)Nc1ccc(OCCCNC(=O)OC(C)(C)C)nc1 [Example 46, tert-Butyl [3-({5-[({5-[(5-cyanopyridin-2-yl)amino]-3-methyl-1,2-thiazol-4-yl}-carbonyl)amino]pyridin-2-yl}oxy)propyl]carbamate]
18 | ≥ 20 µM | Cc1nsc(Nc2cnccn2)c1C(=O)Nc1ccc(OCCCNC(=O)OC(C)(C)C)nc1 [Example 47, tert-Butyl (3-{[5-({[3-methyl-5-(pyrazin-2-ylamino)-1,2-thiazol-4-yl]carbonyl}-amino)pyridin-2-yl]oxy}propyl)carbamate]
19 | ≥ 20 µM | Cc1nsc(Nc2cnccn2)c1C(=O)Nc1ccc(OCCCN)nc1 [Example 48, N-[6-(3-Aminopropoxy)pyridin-3-yl]-3-methyl-5-(pyrazin-2-ylamino)-1,2-thiazole-4-carboxamide]
20 | ≥ 20 µM | Cc1nsc(Nc2cnc3ccccc3n2)c1C(=O)Nc1cccc(C(=O)OC(C)(C)C)c1 [Example 49, tert-Butyl 3-({[3-methyl-5-(quinoxalin-2-ylamino)-1,2-thiazol-4-yl]carbonyl}amino)-benzoate]
21 | 2.5 µM | COC(=O)c1cccc(NC(=O)c2c(C)nsc2Nc2cnc3ccccc3n2)c1 [Example 50, Methyl 3-({[3-methyl-5-(quinoxalin-2-ylamino)-1,2-thiazol-4-yl]carbonyl}amino)-benzoate]
22 | 18 µM | Cc1nsc(Nc2cnc3ccccc3n2)c1C(=O)Nc1cccc(C(=O)N2CCOCC2)c1 [Example 52, 3-Methyl-N-[3-(morpholin-4-ylcarbonyl)phenyl]-5-(quinoxalin-2-ylamino)-1,2-thiazole-4-carboxamide]
23 | ≥ 20 µM | Cc1nsc(Nc2cnc3ccccc3n2)c1C(=O)Nc1cccc(C(=O)NC(C)(C)C)c1 [Example 53, N-[3-(tert-Butylcarbamoyl)-phenyl]-3-methyl-5-(quinoxalin-2-ylamino)-1,2-thiazole-4-carboxamide]
24 | ≥ 20 µM | Cc1nsc(Nc2cnc3ccccc3n2)c1C(=O)Nc1cccc(C(=O)N2CCN(C(=O)OC(C)(C)C)CC2)c1 [Example 55, tert-Butyl 4-[3-({[3-methyl-5-(quinoxalin-2-ylamino)-1,2-thiazol-4-yl]carbonyl}amino)-benzoyl]piperazine-1-carboxylate]
